Assay results taken from patent US20170029388A1, “Treatment of Neurodegenerative Diseases with Asparagine Endopeptidase (AEP) Inhibitors and Compositions Related Thereto” (INTERCONTINENTAL GREAT BRANDS LLC, priority 2014, published 2017).

Assays:
AEP = molecular target: T1, AEP (Homo sapiens, UniProt Q99538); assay: Enzyme inhibition assays (steady-state kinetics, Z-AAN-AMC); format: biochemical; conditions: for mode of inhibition: Michaelis-Menten plots; for inhibition constant KI: competitive inhibition fit
T1 construct: tested with purified active AEP, IC50 values for the top 8 candidates were found; purchased Sino Biological
T1 sequence (Q99538 18-323 limits assumed): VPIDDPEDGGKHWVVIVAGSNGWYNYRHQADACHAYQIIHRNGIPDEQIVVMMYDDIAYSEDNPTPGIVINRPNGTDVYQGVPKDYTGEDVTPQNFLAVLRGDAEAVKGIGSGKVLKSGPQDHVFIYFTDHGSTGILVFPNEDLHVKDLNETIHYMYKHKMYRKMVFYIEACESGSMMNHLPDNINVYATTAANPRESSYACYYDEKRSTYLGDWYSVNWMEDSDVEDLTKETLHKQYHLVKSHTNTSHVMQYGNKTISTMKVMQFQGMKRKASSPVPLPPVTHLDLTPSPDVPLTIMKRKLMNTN
Description: KI values for each inhibitor were determined by global fits to the competitive inhibition equation. C. Time course inactivation assays were used to generate progress curves, depicting product formation as a function of time. […] E. Time course inactivation assays were used to generate progress curves, depicting product formation as a function of time. Pseudo first-order rate constants were obtained at each concentration of compound BB1. F. Re-plot of the pseudo first-order rate constants, kobs, vs. the concentration of compound BB1.
To continue to assess the mechanism utilized by the compounds to inhibit AEP, the inhibition kinetics were determined for compound, 11, as well as compound BB1, in an attempt to confirm that the thiol moiety is competitively inhibiting the enzyme. […] The resulting Michaelis-Menten plots for each compound seem be indicative of competitive inhibition. […] Since BB1 contains a thiol group, it can form a disulfide bond with the active-site cysteine of AEP. […] Additionally, plotting the pseudo-first-order rate constants of inhibition, kobs, which were determined from the progress curves, yielded a hyperbolic curve, consistent with a two-step mechanism of inactivation (FIG. 6D). […] However, the kobs versus inhibitor concentration plot yielded a straight line, maybe due to the rapid disulfide formation reaction (FIG. 6F).
To determine the inhibition constants and the mechanism by which compounds BB1, 11 and 38 inhibit AEP, the steady-state kinetic parameters for the hydrolysis of the peptide substrate, Z-AAN-AMC, was determined in the absence or presence of increasing concentrations of inhibitor. In these assays, specified concentrations of the inhibitor were pre-incubated with substrate for 10 min at 37° C., then 50 nM AEP was added to initiate the reaction, which was quenched after 10 min. The RFU values of the reaction product were converted to micromolar values with an AMC standard curve and the final reaction rates were plotted against substrate concentration and globally fit to equations representative of competitive inhibition (eq 1), noncompetitive inhibition (eq 2), mixed inhibition (eq 3) and uncompetitive inhibition (eq 4) using a nonlinear least fit squares approach by GraFit version 5.0.11. […]
ν=Vmax[S]/([S]+Km(1+[1]/Kis)) (eq 1), ν=Vmax[S]/([S](1+[1]/Kl)+Km(1+[1]/Ki)) (eq 2), ν=Vmax[S]/([S](1+[1]/Kii)+Km([…])) (eq 3), ν=Vmax[S]/([S](1+[1]/Kii)+Km) (eq 4).
In the equations, Kii is the intercept Ki, and Kis is the slope Ki. The mode of the inhibition induced by the compounds on AEP was determined by the best fit of the data to equations 1 -4. Visual inspection of the fits, and a comparison of the standard errors, was used to confirm these assignments.

CYP2C9 = CYP2C9 (Homo sapiens, UniProt P11712); assay: CYP inhibition screening, CYP2C9; format: in vitro ADME
[1] = Liver microsomal stability, mouse; conditions: mouse liver microsomes
CYP3A4 = CYP3A4 (Homo sapiens, UniProt P08684); assay: CYP inhibition screening, CYP3A4-Midazolam; format: in vitro ADME
[2] = molecular target: T2, AEP in human B lymphoblastoid Pala cells (Homo sapiens, UniProt Q99538); assay: IC50 assays in intact Pala cells; format: cell-based; conditions: 2 hr incubation, residual AEP activity in lysate
T2 construct: human B lymphoblastoid pala cells, which are rich in endogenous AEP; endogenous in cells; host or cells: Pala cells (human B lymphoblastoid)
Description: The cells were incubated with inhibitors for 2 hrs then cells washed, harvested and lysed and the residual enzymatic activity was determined. Lysate was normalized by Bradford assay and the experiment was performed in triplicate and the mean results and SEM were plotted.
In an attempt to assess the activity of the compounds in intact cells, the compounds were incubated with human B lymphoblastoid pala cells, which are rich in endogenous AEP and have been used for inhibiting AEP in cellular assay.
Human B Lymphoblastoid Pala cells, which express high concentrations of AEP, were cultured in RPMI-1640, supplemented with 10% FBS, 2 mM L-Glutamine, 100 units/mL Penicillin, 100 μg/mL Streptomycin. Various concentrations of each compound were incubated with the Pala cells for 2 hr at 37° C. Cells were collected, washed twice with PBS and lysed in Lysis Buffer (20 mM Citric Acid, 60 mM Disodium Hydrogen Orthophosphate, 1 mM EDTA, 0.1% CHAPS, pH 5.8). The protein concentrations were normalized by Bradford assay and lysates were assayed with 5 μ,M Cbz-Ala-Ala-Asn-AMC. […] Data were analyzed with GraFit version 5.0.11 software package.

Sequence of CYP3A4 (P08684 whole entry): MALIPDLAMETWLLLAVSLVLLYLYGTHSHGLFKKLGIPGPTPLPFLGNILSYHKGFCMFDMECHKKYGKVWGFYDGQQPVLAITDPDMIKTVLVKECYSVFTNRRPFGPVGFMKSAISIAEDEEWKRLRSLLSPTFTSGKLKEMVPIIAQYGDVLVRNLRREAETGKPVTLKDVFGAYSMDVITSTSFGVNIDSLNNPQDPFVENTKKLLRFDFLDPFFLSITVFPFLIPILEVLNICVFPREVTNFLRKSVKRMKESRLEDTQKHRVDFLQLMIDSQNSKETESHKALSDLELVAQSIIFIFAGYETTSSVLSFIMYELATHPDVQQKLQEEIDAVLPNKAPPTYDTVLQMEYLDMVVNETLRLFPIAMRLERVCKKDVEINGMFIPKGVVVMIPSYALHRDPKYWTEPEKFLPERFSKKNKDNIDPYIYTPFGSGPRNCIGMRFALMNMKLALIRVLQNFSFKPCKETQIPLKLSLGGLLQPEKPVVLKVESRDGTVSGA
Sequence of CYP2C9 (P11712 whole entry): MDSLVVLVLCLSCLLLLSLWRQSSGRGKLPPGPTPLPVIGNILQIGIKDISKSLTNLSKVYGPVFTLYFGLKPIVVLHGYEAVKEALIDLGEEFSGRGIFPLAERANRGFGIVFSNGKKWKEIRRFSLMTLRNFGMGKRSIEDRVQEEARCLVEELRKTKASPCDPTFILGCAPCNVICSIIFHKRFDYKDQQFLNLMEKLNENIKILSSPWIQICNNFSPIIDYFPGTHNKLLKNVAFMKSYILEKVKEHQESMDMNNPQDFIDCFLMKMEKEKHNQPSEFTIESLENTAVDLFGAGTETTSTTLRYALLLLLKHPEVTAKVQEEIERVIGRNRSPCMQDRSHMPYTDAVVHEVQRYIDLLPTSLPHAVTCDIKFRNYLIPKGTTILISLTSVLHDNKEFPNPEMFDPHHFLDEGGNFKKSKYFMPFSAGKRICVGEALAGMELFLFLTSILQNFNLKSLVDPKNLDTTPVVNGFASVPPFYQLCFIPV

| Compound | mode of inhibition (AEP) | inhibition constant KI (AEP) | CYP inhibition, CYP2C9 (CYP2C9; test concentration 3 μM) | CYP inhibition, CYP2C9 (CYP2C9; test concentration 10 μM) | Mean Remaining Parent (NADPH-free) [1] | Mean Remaining Parent (with NADPH) [1] | CYP inhibition, CYP3A4-Midazolam (CYP3A4; test concentration 3 μM) | CYP inhibition, CYP3A4-Midazolam (CYP3A4; test concentration 10 μM) | IC50 in intact Pala cells [2] |
| --- | --- | --- | --- | --- | --- | --- | --- | --- | --- |
| Nc1ccc(N2CCOCC2)c2nonc12 [Compound 11] | competitive inhibitors | nanomolar-range | 4.3% | 5.6% | 103% | 20% | 3.6% | 8.0% | – |
| Sc1nnc(Nc2ccccc2)s1 [Compound BB1] | competitive inhibitors | nanomolar-range | – | – | – | – | – | – | slightly larger IC50 values |
| Cn1c(=O)[nH]c(=O)c2c1nc(S)n2CC(O)COc1ccc(Cl)cc1 (centres unmarked) [Compound 38] | – | – | 15.6% | 17.1% | 99% | 98% | 7.3% | 10.4% | – |
